# According to US20240238299A1, “USE OF PYRROLOPYRIMIDINE COMPOUND” (GUANGZHOU JOYO PHARMATECH CO., LTD, priority 2021, published 2024):
# System: MOG35-55-induced experimental autoimmune encephalomyelitis (EAE) mouse model
# Experiment: MOG35-55-induced EAE mouse model, clinical scoring and incidence
# Format: in vivo, C57BL/6 mice
# Settings: for inhibition rate of AUC for clinical scoring: 14 days, vs vehicle control
smiles,measurement,setting,value
CN(c1ncnc2[nH]ccc12)[C@@H]1CCc2cc(C#N)nn2C1 [Compound I],inhibition rate of AUC for clinical scoring,3 mg/kg BID oral,44%
same,inhibition rate of AUC for clinical scoring,10 mg/kg BID oral,77%
same,inhibition rate of AUC for clinical scoring,20 mg/kg BID oral,63%
same,inhibition rate of AUC for clinical scoring,20 mg/kg QD oral,60%
same,"EAE clinical scoring, Mean","G5, 3 mg/kg BID oral, day 0",0.00
same,incidence of EAE,"G5, 3 mg/kg BID oral, day 0",0%
same,"EAE clinical scoring, Mean","G5, 3 mg/kg BID oral, day 2",0.00
same,incidence of EAE,"G5, 3 mg/kg BID oral, day 2",0%
same,"EAE clinical scoring, Mean","G5, 3 mg/kg BID oral, day 4",0.00
same,incidence of EAE,"G5, 3 mg/kg BID oral, day 4",0%
same,"EAE clinical scoring, Mean","G5, 3 mg/kg BID oral, day 7",0.00
same,incidence of EAE,"G5, 3 mg/kg BID oral, day 7",0%
same,"EAE clinical scoring, Mean","G5, 3 mg/kg BID oral, day 9",0.00
same,incidence of EAE,"G5, 3 mg/kg BID oral, day 9",0%
same,"EAE clinical scoring, Mean","G5, 3 mg/kg BID oral, day 11",0.00
same,incidence of EAE,"G5, 3 mg/kg BID oral, day 11",0%
same,"EAE clinical scoring, Mean","G5, 3 mg/kg BID oral, day 12",0.00
same,incidence of EAE,"G5, 3 mg/kg BID oral, day 12",0%
same,"EAE clinical scoring, Mean","G5, 3 mg/kg BID oral, day 13",0.20
same,incidence of EAE,"G5, 3 mg/kg BID oral, day 13",20%
same,"EAE clinical scoring, Mean","G5, 3 mg/kg BID oral, day 14",0.40
same,incidence of EAE,"G5, 3 mg/kg BID oral, day 14",40%
same,"EAE clinical scoring, Mean","G5, 3 mg/kg BID oral, day 15",0.60
same,incidence of EAE,"G5, 3 mg/kg BID oral, day 15",60%
same,"EAE clinical scoring, Mean","G5, 3 mg/kg BID oral, day 16",0.90
same,incidence of EAE,"G5, 3 mg/kg BID oral, day 16",70%
same,"EAE clinical scoring, Mean","G5, 3 mg/kg BID oral, day 17",1.50
same,incidence of EAE,"G5, 3 mg/kg BID oral, day 17",80%
same,"EAE clinical scoring, Mean","G5, 3 mg/kg BID oral, day 18",1.90
same,incidence of EAE,"G5, 3 mg/kg BID oral, day 18",90%
same,"EAE clinical scoring, Mean","G5, 3 mg/kg BID oral, day 19",1.90
same,incidence of EAE,"G5, 3 mg/kg BID oral, day 19",100%
same,"EAE clinical scoring, Mean","G5, 3 mg/kg BID oral, day 20",1.30
same,incidence of EAE,"G5, 3 mg/kg BID oral, day 20",70%
same,"EAE clinical scoring, Mean","G5, 3 mg/kg BID oral, day 21",1.10
same,incidence of EAE,"G5, 3 mg/kg BID oral, day 21",60%
same,"EAE clinical scoring, Mean","G5, 3 mg/kg BID oral, day 22",1.10
same,incidence of EAE,"G5, 3 mg/kg BID oral, day 22",60%
same,"EAE clinical scoring, Mean","G5, 3 mg/kg BID oral, day 23",1.00
same,incidence of EAE,"G5, 3 mg/kg BID oral, day 23",60%
same,"EAE clinical scoring, Mean","G5, 3 mg/kg BID oral, day 24",0.80
same,incidence of EAE,"G5, 3 mg/kg BID oral, day 24",50%
same,"EAE clinical scoring, Mean","G5, 3 mg/kg BID oral, day 25",0.80
same,incidence of EAE,"G5, 3 mg/kg BID oral, day 25",50%
same,"EAE clinical scoring, Mean","G5, 3 mg/kg BID oral, day 26",0.80
same,incidence of EAE,"G5, 3 mg/kg BID oral, day 26",50%
same,"EAE clinical scoring, Mean","G5, 3 mg/kg BID oral, day 27",0.60
same,incidence of EAE,"G5, 3 mg/kg BID oral, day 27",30%
same,"EAE clinical scoring, Mean","G6, 10 mg/kg BID oral, day 0",0.00
same,incidence of EAE,"G6, 10 mg/kg BID oral, day 0",0%
same,"EAE clinical scoring, Mean","G6, 10 mg/kg BID oral, day 2",0.00
same,incidence of EAE,"G6, 10 mg/kg BID oral, day 2",0%
same,"EAE clinical scoring, Mean","G6, 10 mg/kg BID oral, day 4",0.00
same,incidence of EAE,"G6, 10 mg/kg BID oral, day 4",0%
same,"EAE clinical scoring, Mean","G6, 10 mg/kg BID oral, day 7",0.00
same,incidence of EAE,"G6, 10 mg/kg BID oral, day 7",0%
same,"EAE clinical scoring, Mean","G6, 10 mg/kg BID oral, day 9",0.00
same,incidence of EAE,"G6, 10 mg/kg BID oral, day 9",0%
same,"EAE clinical scoring, Mean","G6, 10 mg/kg BID oral, day 11",0.00
same,incidence of EAE,"G6, 10 mg/kg BID oral, day 11",0%
same,"EAE clinical scoring, Mean","G6, 10 mg/kg BID oral, day 12",0.00
same,incidence of EAE,"G6, 10 mg/kg BID oral, day 12",0%
same,"EAE clinical scoring, Mean","G6, 10 mg/kg BID oral, day 13",0.20
same,incidence of EAE,"G6, 10 mg/kg BID oral, day 13",20%
same,"EAE clinical scoring, Mean","G6, 10 mg/kg BID oral, day 14",0.40
same,incidence of EAE,"G6, 10 mg/kg BID oral, day 14",40%
same,"EAE clinical scoring, Mean","G6, 10 mg/kg BID oral, day 15",0.50
same,incidence of EAE,"G6, 10 mg/kg BID oral, day 15",50%
same,"EAE clinical scoring, Mean","G6, 10 mg/kg BID oral, day 16",0.60
same,incidence of EAE,"G6, 10 mg/kg BID oral, day 16",50%
same,"EAE clinical scoring, Mean","G6, 10 mg/kg BID oral, day 17",0.50
same,incidence of EAE,"G6, 10 mg/kg BID oral, day 17",40%
same,"EAE clinical scoring, Mean","G6, 10 mg/kg BID oral, day 18",0.60
same,incidence of EAE,"G6, 10 mg/kg BID oral, day 18",40%
same,"EAE clinical scoring, Mean","G6, 10 mg/kg BID oral, day 19",0.40
same,incidence of EAE,"G6, 10 mg/kg BID oral, day 19",20%
same,"EAE clinical scoring, Mean","G6, 10 mg/kg BID oral, day 20",0.30
same,incidence of EAE,"G6, 10 mg/kg BID oral, day 20",10%
same,"EAE clinical scoring, Mean","G6, 10 mg/kg BID oral, day 21",0.30
same,incidence of EAE,"G6, 10 mg/kg BID oral, day 21",20%
same,"EAE clinical scoring, Mean","G6, 10 mg/kg BID oral, day 22",0.30
same,incidence of EAE,"G6, 10 mg/kg BID oral, day 22",20%
same,"EAE clinical scoring, Mean","G6, 10 mg/kg BID oral, day 23",0.40
same,incidence of EAE,"G6, 10 mg/kg BID oral, day 23",30%
same,"EAE clinical scoring, Mean","G6, 10 mg/kg BID oral, day 24",0.40
same,incidence of EAE,"G6, 10 mg/kg BID oral, day 24",30%
same,"EAE clinical scoring, Mean","G6, 10 mg/kg BID oral, day 25",0.40
same,incidence of EAE,"G6, 10 mg/kg BID oral, day 25",30%
same,"EAE clinical scoring, Mean","G6, 10 mg/kg BID oral, day 26",0.40
same,incidence of EAE,"G6, 10 mg/kg BID oral, day 26",30%
